Reference: patent publication US11866408B2, “N,N-dimethyltryptamine and related psychedelics and uses thereof” (Terran Biosciences Inc., priority 2021, dated 2024)
Where a name gives a salt, the structure may show the parent alone.

Key:
[1] = Single oral dose pharmacokinetics study in rats (10 mg/kg PO; plasma levels of prodrug and of metabolite DMT or 5-MeO-DMT by LC-MS/MS); conditions: for Mean Plasma Concentration (ng/mL) of metabolite DMT: analyte DMT after oral dosing of prodrug 10 mg/Kg; for Mean Plasma Concentrations of metabolite DMT: prodrug 10 mg/Kg oral, male SD rats
[2] = Single intravenous dose pharmacokinetics study in rats (1 mg/kg IV; plasma levels of prodrug and of DMT or 5-MeO-DMT by LC-MS/MS); conditions: IV 1 mg/kg, plasma, analyte = dosed compound; for AUC(0-t) / AUC(0-inf) / clearance / MRT / Vd / half-life: male, Sprague-Dawley, rat, iv, 1 mg/kg; for clearance: CL/CL_F (mL/min/kg); for MRT: MRT (h); for Vd: Vdss (L/kg); for half-life: t1/2 (h)
[3] = oral 10 mg/Kg, analyte = dosed prodrug, mean
[4] = oral 10 mg/Kg, analyte = dosed prodrug, median
[5] = male, Sprague-Dawley, rat, plasma, po, 10 mg/kg, AUC0-last (h*ng/mL), oral 10 mg/Kg, analyte = dosed prodrug, mean
[6] = male, Sprague-Dawley, rat, plasma, po, 10 mg/kg, Cmax (ng/mL), oral 10 mg/Kg, analyte = dosed prodrug, mean
[7] = PO 10 mg/kg, plasma, analyte = dosed compound
[8] = male, Sprague-Dawley, rat, plasma, po, 10 mg/kg, C0/Cmax (nM), PO 10 mg/kg, analyte = dosed compound
[9] = male, Sprague-Dawley, rat, plasma, po, 10 mg/kg, C0/Cmax (ng/mL), PO 10 mg/kg, analyte = dosed compound, mean/median
[10] = male, Sprague-Dawley, rat, plasma, po, 10 mg/kg, AUC0-t (nM.hr), PO 10 mg/kg, analyte = dosed compound
[11] = male, Sprague-Dawley, rat, plasma, po, 10 mg/kg, AUC0-t (ng.hr/mL), PO 10 mg/kg, analyte = dosed compound

COc1ccc2c(c1)c(CCN(C)C)cn2C(C)=O [5-MeO-DMT AP-1, 1-[3-[2-(dimethylamino)ethyl]-5-methoxy-indol-1-yl]ethanone]
AUC0-last [1, 3]: 180 ng·h/mL | Cmax [1, 3]: 69 ng/mL | T½ [1, 3]: 74.4 min | Tmax [1, 4]: 30 min | tlast [1, 4]: 7.00 h

COc1ccc2c(c1)c(CCN(C)C)cn2C(=O)OC(C)C [5-MeO-DMT CP-2, isopropyl 3-[2-(dimethylamino)ethyl]-5-methoxy-indole-1-carboxylate]
AUC(0-t) [1, 5]: 6.8 ng·h/mL | Cmax [1, 6]: 5.7 ng/mL | tlast [1, 4]: 2.50 h

COc1ccc2c(c1)c(CCN(C)C)cn2C(=O)OC(C)(C)C [5-MeO-DMT CP-3, tert-butyl 3-[2-(dimethylamino)ethyl]-5-methoxy-indole-1-carboxylate]
AUC(0-t) [1, 5]: 17.3 ng·h/mL | Cmax [1, 6]: 7.51 ng/mL | tlast [1, 4]: 4.00 h

CCCOC(=O)n1cc(CCN(C)C)c2cc(OC)ccc21 [5-MeO-DMT CP-4, propyl 3-[2-(dimethylamino)ethyl]-5-methoxy-indole-1-carboxylate]
AUC(0-t) [1, 5]: 6.45 ng·h/mL | Cmax [1, 6]: 4.85 ng/mL | tlast [1, 4]: 3.00 h

COc1ccc2c(c1)c(CCN(C)C)cn2C(=O)CCC(=O)O [5-MeO-DMT Non-Lipid Prodrug 5, 4-(3-(2-(dimethylamino)ethyl)-5-methoxy-1H-indol-1-yl)-4-oxobutanoic acid]
AUC(0-t) [1, 5]: 85.7 ng·h/mL | Cmax [1, 6]: 23 ng/mL | tlast [1, 4]: 7.00 h

COc1ccc2c(c1)c(CCN(C)C)cn2C(=O)CCCC(=O)O [5-MeO-DMT Non-Lipid Prodrug 6, 5-(3-(2-(dimethylamino)ethyl)-5-methoxy-1H-indol-1-yl)-5-oxopentanoic acid]
AUC(0-t) [1, 5]: 362 ng·h/mL | Cmax [1, 6]: 106 ng/mL | tlast [1, 4]: 7.00 h

COc1ccc2[nH]cc(CCN(C)C)c2c1 [Compound 5-MeO-DMT, 5-methoxy-N,N-dimethyltryptamine, reference compound]
Clast [1, 7]: 1.95 ng/mL | tlast [1, 7]: 2.00 h | Cmax [1, 8]: 13.9 nM | Cmax [1, 9]: 3.03 ng/mL | AUC % Back Extrapolation to C0 [2]: 26.8% | AUC % Extrapolation to infinity [2]: 0.204% | Clast [2]: 1.68 ng/mL | tlast [2]: 5.50 h | AUC(0-t) ([2]; AUC0-t (nM.hr)): 4.95 µM·h | AUC(0-t) ([2]; AUC0-t (ng.hr/mL)): 1080 ng·h/mL | AUC(0-inf) ([2]; AUCinf (nM.hr)): 4.95 µM·h | AUC(0-inf) ([2]; AUCinf (ng.hr/mL)): 1080 ng·h/mL | clearance [2]: 24.6 mL/min/kg | MRT [2]: 37.4 min | Vd [2]: 0.818 L/kg | half-life [2]: 30.6 min

CCOC(=O)n1cc(CCN(C)C)c2cc(OC)ccc21 [Compound 19, Ethyl 3-[2-(dimethylamino)ethyl]-5-methoxy-indole-1-carboxylate]
Clast [1, 7]: 1.90 ng/mL | tlast [1, 7]: 24.0 h | AUC(0-t) [1, 10]: 0.237 µM·h | AUC(0-t) [1, 11]: 68.8 ng·h/mL | Cmax [1, 8]: 8.15 nM | Cmax [1, 9]: 2.37 ng/mL | AUC % Back Extrapolation to C0 [2]: 59.7% | AUC % Extrapolation to infinity [2]: 0.104% | Clast [2]: 2.95 ng/mL | tlast [2]: 5.50 h | AUC(0-t) ([2]; AUC0-t (nM.hr)): 14.4 µM·h | AUC(0-t) ([2]; AUC0-t (ng.hr/mL)): 4170 ng·h/mL

CCOC(=O)n1cc(CCN(C)C)c2ccccc21 [Compound 20, Ethyl 3-[2-(dimethylamino)ethyl]indole-1-carboxylate]
Clast [1, 7]: 3.01 ng/mL | tlast [1, 7]: 1.00 h | AUC(0-t) [1, 10]: 0.0184 µM·h | AUC(0-t) [1, 11]: 4.78 ng·h/mL | Cmax [1, 8]: 44.3 nM | Cmax [1, 9]: 11.5 ng/mL | AUC % Back Extrapolation to C0 [2]: 17.5% | AUC % Extrapolation to infinity [2]: 1.073% | Clast [2]: 3.26 ng/mL | tlast [2]: 4.00 h | AUC(0-t) ([2]; AUC0-t (nM.hr)): 1.07 µM·h | AUC(0-t) ([2]; AUC0-t (ng.hr/mL)): 279 ng·h/mL | AUC(0-inf) ([2]; AUCinf (nM.hr)): 1.08 µM·h | AUC(0-inf) ([2]; AUCinf (ng.hr/mL)): 282 ng·h/mL | clearance [2]: 67.9 mL/min/kg | MRT [2]: 48.6 min | Vd [2]: 3.53 L/kg | half-life [2]: 36.8 min

CN(C)CCc1cn(C(=O)N2CCC(N3CCCCC3)CC2)c2ccccc12 [DMT 4-Piperidinopiperidine urea formate, [1,4′-Bipiperidin]-1′-yl(3-(2-(dimethylamino)ethyl)-1H-indol-1-yl)methanone]
Mean Plasma Concentration (ng/mL) of metabolite DMT ([1]; 0.50 h): BLQ (BLQ: Below Lower Limit of Quantification (0.5 ng/mL)) | Mean Plasma Concentration (ng/mL) of metabolite DMT ([1]; 1.00 h): BLQ (BLQ: Below Lower Limit of Quantification (0.5 ng/mL)) | Mean Plasma Concentration (ng/mL) of metabolite DMT ([1]; 2.00 h): BLQ (BLQ: Below Lower Limit of Quantification (0.5 ng/mL)) | Mean Plasma Concentration (ng/mL) of metabolite DMT ([1]; 4.00 h): BLQ (BLQ: Below Lower Limit of Quantification (0.5 ng/mL)) | Mean Plasma Concentration (ng/mL) of metabolite DMT ([1]; 7.00 h): BLQ (BLQ: Below Lower Limit of Quantification (0.5 ng/mL)) | Mean Plasma Concentration (ng/mL) of metabolite DMT ([1]; 24.0 h): BLQ (BLQ: Below Lower Limit of Quantification (0.5 ng/mL))

CC(=O)n1cc(CCN(C)C)c2ccccc21 [DMT AP-1, 1-[3-[2-(dimethylamino)ethyl]indol-1-yl]ethenone]
AUC(0-t) [1, 5]: 2.16 ng·h/mL | Cmax [1, 6]: 3.53 ng/mL | tlast [1, 4]: 1.00 h

CN(C)CCc1cn(C(=O)c2ccccc2)c2ccccc12 [DMT Benzamide]
AUC(0-t) [1, 5]: 66.5 ng·h/mL | Cmax [1, 6]: 17.7 ng/mL | tlast [1, 4]: 7.00 h

CC(C)OC(=O)n1cc(CCN(C)C)c2ccccc21 [DMT CP-2, isopropyl 3-[2-(dimethylamino)ethyl]indole-1-carboxylate]
AUC(0-t) ([1]; male, Sprague-Dawley, rat, plasma, po, 10 mg/kg, AUC0-24 (h*ng/mL), oral 10 mg/Kg, analyte = dosed prodrug, mean): 60.9 ng·h/mL | AUC(0-t) [1, 5]: 39.4 ng·h/mL | Cmax [1, 6]: 17.4 ng/mL | tlast [1, 4]: 4.00 h

CN(C)CCc1cn(C(=O)OC(C)(C)C)c2ccccc12 [DMT CP-3, tert-butyl 3-[2-(dimethylamino)ethyl]indole-1-carboxylate]
AUC(0-t) [1, 5]: 13.8 ng·h/mL | Cmax [1, 6]: 11.1 ng/mL | tlast [1, 4]: 4.00 h

CCCOC(=O)n1cc(CCN(C)C)c2ccccc21 [DMT CP-4, propyl 3-[2-(dimethylamino)ethyl]indole-1-carboxylate]
AUC(0-t) [1, 5]: 28.2 ng·h/mL | Cmax [1, 6]: 14.3 ng/mL | tlast [1, 4]: 4.50 h

CC(C)COC(=O)n1cc(CCN(C)C)c2ccccc21 [DMT CP-5, isobutyl 3-[2-(dimethylamino)ethyl]indole-1-carboxylate]
AUC(0-t) [1, 5]: 8.63 ng·h/mL | Cmax [1, 6]: 2.92 ng/mL | tlast [1, 4]: 4.00 h

CN(C)CCc1cn(C(=O)N(C)C)c2ccccc12 [DMT N,N-dimethyl urea formate, 3-[2-(dimethylamino)ethyl]-N,N-dimethyl-indole-1-carboxamide]
Mean Plasma Concentrations of metabolite DMT ([1]; time 0.50 h): BLQ (BLQ: Below Lower Limit of Quantification (0.5 ng/mL)) | Mean Plasma Concentrations of metabolite DMT ([1]; time 1.00 h): BLQ (BLQ: Below Lower Limit of Quantification (0.5 ng/mL)) | Mean Plasma Concentrations of metabolite DMT ([1]; time 2.00 h): BLQ (BLQ: Below Lower Limit of Quantification (0.5 ng/mL)) | Mean Plasma Concentrations of metabolite DMT ([1]; time 4.00 h): BLQ (BLQ: Below Lower Limit of Quantification (0.5 ng/mL)) | Mean Plasma Concentrations of metabolite DMT ([1]; time 7.00 h): BLQ (BLQ: Below Lower Limit of Quantification (0.5 ng/mL)) | Mean Plasma Concentrations of metabolite DMT ([1]; time 24.0 h): BLQ (BLQ: Below Lower Limit of Quantification (0.5 ng/mL))

CN(C)CCc1cn(C(=O)CC(C)(C)C(=O)O)c2ccccc12 [DMT-3,3-dimethylsuccinate hydrochloride, 4-(3-(2-(dimethylamino)ethyl)-1H-indol-1-yl)-2,2-dimethyl-4-oxobutanoic acid HCl salt]
Mean Plasma Concentrations of metabolite DMT ([1]; time 0.50 h): BLQ (BLQ: Below Lower Limit of Quantification (0.5 ng/mL)) | Mean Plasma Concentrations of metabolite DMT ([1]; time 1.00 h): BLQ (BLQ: Below Lower Limit of Quantification (0.5 ng/mL)) | Mean Plasma Concentrations of metabolite DMT ([1]; time 2.00 h): BLQ (BLQ: Below Lower Limit of Quantification (0.5 ng/mL)) | Mean Plasma Concentrations of metabolite DMT ([1]; time 4.00 h): BLQ (BLQ: Below Lower Limit of Quantification (0.5 ng/mL)) | Mean Plasma Concentrations of metabolite DMT ([1]; time 7.00 h): BLQ (BLQ: Below Lower Limit of Quantification (0.5 ng/mL)) | Mean Plasma Concentrations of metabolite DMT ([1]; time 24.0 h): BLQ (BLQ: Below Lower Limit of Quantification (0.5 ng/mL))
